# Laboratory results as given in US20150290160A1, “Spermidine/Spermine N1-Acetyltransferase Substrates As Anti-Cancer Drug Compounds” (BIOMARK TECHNOLOGIES INC., priority 2012, published 2015).
# Like-named read-outs stand apart in the source and are kept apart here.
# Assays:
# [1] = test system: breast cancer cell line BT-549; test: cells; conditions: Homo sapiens, BT-549, 72 h, read-out: IC50 (cytotoxicity)
# Description: (§1) Each human cancer cell line was incubated with each of the four monoamine test drugs at a range of testing concentrations. Cytotoxicity expressed as half maximal inhibitory concentration or IC50 was determined based on a (dimethyl-2-thiazolyl)-2,5-diphenyl-2H-tetrazolium bromide or MTT assay. In parallel, the expression levels of SSAT in these cell lines were measured using a RT-qPCR assay.
# (§2) Cells of the ten cell lines were harvested from their established adherent cultures with trypsin EDTA, pelleted by centrifugation, and resuspended in the appropriate medium to yield a suspension of cells for each cell line. […]
# (§3) After three days of incubation with substrates, an aliquot of 5 mg/mL MTT was added to each well and then incubated for 1 to 3 hours. […] An aliquot from each well was measured for absorbance at 550 nm or 555 nm on a 96-well flat bottom plate with a microplate reader and DMSO for background absorbance correction.
# (§4) Cytotoxicity was determined based on treating each cell line with each of the test drugs over a range of concentrations. Following a three day incubation period cytotoxicity was measured by an MTT assay. IC50 values were deduced based on plots of cytotoxicity level expressed as percentage inhibition over the testing concentrations as shown in FIGS. 5 to 14. […]
# NCI-H23 (lung cancer) = test: MTT cytotoxicity assay, NCI-H23; type: cell-based; conditions: Homo sapiens, 72 h, NCI-H23, three day incubation
# Description: as §1, §2, §3, §4
# LNCaP = test: MTT cytotoxicity assay, LNCaP
# Description: as §1, §2, §3, §4
# T-47D = test: MTT cytotoxicity assay, T-47D
# Description: as §1, §2, §3, §4
# [2] = test system: human cancer cell lines (A549, H322, NCI-H23, MCF-7, T-47D, BT-549, LNCaP, PC-3, Du-145, U2-OS); test: MTT cytotoxicity assay, across all cell lines evaluated; type: cell-based; conditions: 72 h, across all the cell lines evaluated, three day incubation, read-out: IC50 (cytotoxicity), range across cell lines
# Excerpt: Three cell lines from each of lung, breast and prostate cancers have been selected based on literature SSAT expression data and used for potential cytotoxicity screening in the MTT assay. The SSAT non-expressing human osteosarcoma cell line U2-OS was used as the negative control cell line.
# [3] = test system: SSAT non-expressing cell lines (U2-OS and HeLa); test: Percent confluency during incubation with spermidine, SSAT non-expressing cell lines; type: cell-based, human; conditions: spermidine from 22 μM to 550 μM, compared among U2-OS, Malme-3M, PC-3, HEK293
# [4] = test system: SSAT over-expressing cell lines (Malme-M3 and PC-3); test: Percent confluency during incubation with spermidine, SSAT over-expressing cell lines; type: cell-based, human; conditions: spermidine from 22 μM to 550 μM; compared among U2-OS, HeLa, Malme-3M, PC-3, HEK293
# [5] = test system: U2-OS osteosarcoma cell line (negative control, SSAT non-expressing); test: MTT cytotoxicity assay, U2-OS; type: cell-based, human; conditions: for IC50 values (in words): does not express SSAT
# Description: as §1
# Cells of the ten cell lines were harvested from their established adherent cultures with trypsin EDTA, pelleted by centrifugation, and resuspended in the appropriate medium to yield a suspension of cells for each cell line.
# Each of the monoamine test drugs (amantadine, rimantadine, dopamine and L-DOPA) and the positive control (spermidine) was accurately weighed, dissolved and further diluted with sterile water into a series of solutions at 100× of their target incubation concentrations. The target incubation concentrations for amantadine, rimantadine, and dopamine were 0.03, 0.1, 0.3, 1, 3, 10, 30, 100, 300 and 1000 μM. The target incubation concentrations for L-DOPA and the positive control, spermidine, were 0.1, 0.3, 1, 3, 10, 30, 100, 300 and 1000 μM.
# Incubation was performed in triplicate at each drug concentration for each cell line tested. […]
# as §3
# Cytotoxicity was determined based on treating each cell line with each of the test drugs over a range of concentrations. Following a three day incubation period cytotoxicity was measured by an MTT assay. IC50 values were deduced based on plots of cytotoxicity level expressed as percentage inhibition over the testing concentrations as shown in FIGS. 5 to 14. In parallel to each drug treatment, each cell line was also treated with spermidine as a positive control and the IC50 value for spermidine was determined for comparison.
smiles,measurement,setting,value
"NC12CC3CC(CC(C3)C1)C2 [amantadine, Amantadine]",IC50,[1],1160 µM
same,IC50,NCI-H23 (lung cancer),1600 µM
same,cytotoxicity (in words),"LNCaP; LNCaP, over-expresses SSAT (>5-fold change)",high cytotoxicity
same,cytotoxicity (in words),"T-47D; T-47D, over-expresses SSAT (>2 fold change)",high cytotoxicity
"NCCCCNCCCN [spermidine, Spermidine]",IC50,[2],3.72 to 32.7 µM
same,"relative cell viability, expressed as percent confluency",[3],highest
same,"relative cell viability, expressed as percent confluency",[4],lowest
"CC(N)C12CC3CC(CC(C3)C1)C2 (stereo not shown) [rimantadine, Rimantadine]",cytotoxicity (in words),LNCaP,high cytotoxicity
same,cytotoxicity (in words),T-47D,high cytotoxicity
"NCCc1ccc(O)c(O)c1 [dopamine, Dopamine]",IC50,"[5]; Homo sapiens, U2OS, 72 h, three day incubation, MTT",34.1 µM
same,IC50 values (in words),[5],low IC50 values
same,IC50,[1],52 µM
N[C@@H](Cc1ccc(O)c(O)c1)C(=O)O [L-DOPA],IC50 values (in words),[5],low IC50 values
